Results published in the supplement of paper PMC10307832.

How the values were obtained:
Assay in all cases: relative viability (nuclei count vs DMSO), 5 days (fraction); higher = more cells survive
[1] = system: NCI-H1975
Summary of the method: (§1)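 Nuclei were stained with Hoechst during a one-step fixation (final 0.05% Triton X-100, 1% formaldehyde, 1 ug/ml Hoechst) carried out 5 days after dosing, then counted on 4× images. The cells, lung cancer lines in 1536-well plates, had been dosed by pin tool the day after seeding with one drug alone or a fixed anchor-drug dose plus five library-drug doses (not always all listed) in √10 steps. Relative viability is the nuclei count in treated wells divided by that in vehicle wells, and each value is the median of duplicate plates.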

[2] = system: NCI-H661
Summary of the method: as §1

[3] = system: NCI-H1437
Summary of the method: as §1

[4] = system: NCI-H2405
Summary of the method: as §1

[5] = system: HCC-827
Summary of the method: as §1

[6] = system: HCC-78
Summary of the method: as §1

[7] = system: NCI-H2085
Summary of the method: as §1

[8] = system: SK-LU-1
Summary of the method: as §1

[9] = system: NCI-H358
Summary of the method: as §1

[10] = system: COR-L23
Summary of the method: as §1

[11] = system: NCI-H1792
Summary of the method: as §1

[12] = system: UMC-11
Summary of the method: as §1

[13] = system: NCI-H1395
Summary of the method: as §1

[14] = system: NCI-H727
Summary of the method: as §1

[15] = system: HCC-15
Summary of the method: as §1

[16] = system: SK-MES-1
Summary of the method: as §1

[17] = system: COR-L 105
Summary of the method: as §1

[18] = system: LCLC-103H
Summary of the method: as §1

[19] = system: NCI-H1944
Summary of the method: as §1

[20] = system: HCC-366
Summary of the method: as §1

[21] = system: EPLC-272H
Summary of the method: as §1

[22] = system: NCI-H2023
Summary of the method: as §1

[23] = system: HARA
Summary of the method: as §1

[24] = system: HCC-44
Summary of the method: as §1

Compound: CCCCCCCCCCCC1=C(O)C(=O)C=C(O)C1=O [Embelin] + CS(=O)(=O)N1CCN(Cc2cc3nc(-c4cccc5[nH]ncc45)nc(N4CCOCC4)c3s2)CC1 [Pictilisib] (partner 1 µM)
- relative viability ([1]; first compound 0.08 µM): 0.343
- relative viability ([1]; first compound 0.8 µM): 0.332
- relative viability ([1]; first compound 2.53 µM): 0.288
- relative viability ([1]; first compound 8 µM): 0.288
- relative viability ([2]; first compound 0.08 µM): 0.41
- relative viability ([2]; first compound 0.8 µM): 0.44
- relative viability ([2]; first compound 2.53 µM): 0.348
- relative viability ([2]; first compound 8 µM): 0.481
- relative viability ([3]; first compound 0.08 µM): 0.469
- relative viability ([3]; first compound 0.8 µM): 0.48
- relative viability ([3]; first compound 2.53 µM): 0.5
- relative viability ([3]; first compound 8 µM): 0.364
- relative viability ([4]; first compound 0.08 µM): 0.555
- relative viability ([4]; first compound 0.8 µM): 0.59
- relative viability ([4]; first compound 2.53 µM): 0.439
- relative viability ([4]; first compound 8 µM): 0.323
- relative viability ([5]; first compound 0.08 µM): 1.03
- relative viability ([5]; first compound 0.8 µM): 1.04
- relative viability ([5]; first compound 2.53 µM): 1.16
- relative viability ([5]; first compound 8 µM): 1.19
- relative viability ([6]; first compound 0.08 µM): 0.263
- relative viability ([6]; first compound 0.8 µM): 0.216
- relative viability ([6]; first compound 2.53 µM): 0.225
- relative viability ([6]; first compound 8 µM): 0.219
- relative viability ([7]; first compound 0.08 µM): 0.44
- relative viability ([7]; first compound 0.8 µM): 0.404
- relative viability ([7]; first compound 2.53 µM): 0.44
- relative viability ([7]; first compound 8 µM): 0.46
- relative viability ([8]; first compound 0.08 µM): 0.676
- relative viability ([8]; first compound 0.8 µM): 0.667
- relative viability ([8]; first compound 2.53 µM): 0.678
- relative viability ([8]; first compound 8 µM): 0.541
- relative viability ([9]; first compound 0.08 µM): 0.425
- relative viability ([9]; first compound 0.8 µM): 0.39
- relative viability ([9]; first compound 2.53 µM): 0.315
- relative viability ([9]; first compound 8 µM): 0.294
- relative viability ([10]; first compound 0.08 µM): 0.832
- relative viability ([10]; first compound 0.8 µM): 0.958
- relative viability ([10]; first compound 2.53 µM): 0.874
- relative viability ([10]; first compound 8 µM): 0.93
- relative viability ([11]; first compound 0.08 µM): 0.299
- relative viability ([11]; first compound 0.8 µM): 0.37
- relative viability ([11]; first compound 2.53 µM): 0.281
- relative viability ([11]; first compound 8 µM): 0.333
- relative viability ([12]; first compound 0.08 µM): 0.852
- relative viability ([12]; first compound 0.8 µM): 1
- relative viability ([12]; first compound 2.53 µM): 1.11
- relative viability ([12]; first compound 8 µM): 0.667
- relative viability ([13]; first compound 0.08 µM): 0.608
- relative viability ([13]; first compound 0.8 µM): 0.677
- relative viability ([13]; first compound 2.53 µM): 0.69
- relative viability ([13]; first compound 8 µM): 0.502
- relative viability ([14]; first compound 0.08 µM): 0.359
- relative viability ([14]; first compound 0.8 µM): 0.526
- relative viability ([14]; first compound 2.53 µM): 0.355
- relative viability ([14]; first compound 8 µM): 0.51
- relative viability ([15]; first compound 0.08 µM): 0.736
- relative viability ([15]; first compound 0.8 µM): 0.802
- relative viability ([15]; first compound 2.53 µM): 0.85
- relative viability ([15]; first compound 8 µM): 0.743
- relative viability ([16]; first compound 0.08 µM): 0.347
- relative viability ([16]; first compound 0.8 µM): 0.421
- relative viability ([16]; first compound 2.53 µM): 0.35
- relative viability ([16]; first compound 8 µM): 0.359
- relative viability ([17]; first compound 0.08 µM): 0.338
- relative viability ([17]; first compound 0.8 µM): 0.484
- relative viability ([17]; first compound 2.53 µM): 0.424
- relative viability ([17]; first compound 8 µM): 0.392
- relative viability ([18]; first compound 0.08 µM): 0.591
- relative viability ([18]; first compound 0.8 µM): 0.652
- relative viability ([18]; first compound 2.53 µM): 0.614
- relative viability ([18]; first compound 8 µM): 0.677
- relative viability ([19]; first compound 0.08 µM): 0.367
- relative viability ([19]; first compound 0.8 µM): 0.383
- relative viability ([19]; first compound 2.53 µM): 0.36
- relative viability ([19]; first compound 8 µM): 0.306
- relative viability ([20]; first compound 0.08 µM): 0.151
- relative viability ([20]; first compound 0.8 µM): 0.203
- relative viability ([20]; first compound 2.53 µM): 0.149
- relative viability ([20]; first compound 8 µM): 0.127
- relative viability ([21]; first compound 0.08 µM): 0.319
- relative viability ([21]; first compound 0.8 µM): 0.427
- relative viability ([21]; first compound 2.53 µM): 0.334
- relative viability ([21]; first compound 8 µM): 0.276
- relative viability ([22]; first compound 0.08 µM): 0.269
- relative viability ([22]; first compound 0.8 µM): 0.242
- relative viability ([22]; first compound 2.53 µM): 0.211
- relative viability ([22]; first compound 8 µM): 0.243
- relative viability ([23]; first compound 0.08 µM): 0.604
- relative viability ([23]; first compound 0.8 µM): 0.586
- relative viability ([23]; first compound 2.53 µM): 0.489
- relative viability ([23]; first compound 8 µM): 0.653
- relative viability ([24]; first compound 0.08 µM): 0.62
- relative viability ([24]; first compound 0.8 µM): 0.61
- relative viability ([24]; first compound 2.53 µM): 0.678
- relative viability ([24]; first compound 8 µM): 0.7

Compound: CCCCCCCCCCCC1=C(O)C(=O)C=C(O)C1=O [Embelin] + C[C@@H](Oc1cc(-c2cnn(C3CCNCC3)c2)cnc1N)c1c(Cl)ccc(F)c1Cl [Crizotinib] (partner 1 µM)
- relative viability ([1]; first compound 0.08 µM): 1.1
- relative viability ([1]; first compound 0.8 µM): 0.999
- relative viability ([1]; first compound 2.53 µM): 1
- relative viability ([1]; first compound 8 µM): 1.04
- relative viability ([2]; first compound 0.08 µM): 1.09
- relative viability ([2]; first compound 0.8 µM): 1.09
- relative viability ([2]; first compound 2.53 µM): 0.846
- relative viability ([2]; first compound 8 µM): 0.997
- relative viability ([3]; first compound 0.08 µM): 0.988
- relative viability ([3]; first compound 0.8 µM): 0.898
- relative viability ([3]; first compound 2.53 µM): 1.01
- relative viability ([3]; first compound 8 µM): 0.452
- relative viability ([4]; first compound 0.08 µM): 0.908
- relative viability ([4]; first compound 0.8 µM): 0.976
- relative viability ([4]; first compound 2.53 µM): 0.892
- relative viability ([4]; first compound 8 µM): 0.955
- relative viability ([5]; first compound 0.08 µM): 0.98
- relative viability ([5]; first compound 0.8 µM): 0.931
- relative viability ([5]; first compound 2.53 µM): 0.976
- relative viability ([5]; first compound 8 µM): 0.977
- relative viability ([6]; first compound 0.08 µM): 0.344
- relative viability ([6]; first compound 0.8 µM): 0.373
- relative viability ([6]; first compound 2.53 µM): 0.347
- relative viability ([6]; first compound 8 µM): 0.321
- relative viability ([7]; first compound 0.08 µM): 0.666
- relative viability ([7]; first compound 0.8 µM): 0.948
- relative viability ([7]; first compound 2.53 µM): 0.925
- relative viability ([7]; first compound 8 µM): 0.835
- relative viability ([8]; first compound 0.08 µM): 1.08
- relative viability ([8]; first compound 0.8 µM): 1.06
- relative viability ([8]; first compound 2.53 µM): 0.941
- relative viability ([8]; first compound 8 µM): 0.922
- relative viability ([9]; first compound 0.08 µM): 0.635
- relative viability ([9]; first compound 0.8 µM): 0.851
- relative viability ([9]; first compound 2.53 µM): 0.547
- relative viability ([9]; first compound 8 µM): 0.791
- relative viability ([10]; first compound 0.08 µM): 0.691
- relative viability ([10]; first compound 0.8 µM): 0.762
- relative viability ([10]; first compound 2.53 µM): 0.701
- relative viability ([10]; first compound 8 µM): 0.745
- relative viability ([11]; first compound 0.08 µM): 0.997
- relative viability ([11]; first compound 0.8 µM): 0.974
- relative viability ([11]; first compound 2.53 µM): 1.19
- relative viability ([11]; first compound 8 µM): 0.964
- relative viability ([12]; first compound 0.08 µM): 0.639
- relative viability ([12]; first compound 0.8 µM): 0.618
- relative viability ([12]; first compound 2.53 µM): 0.644
- relative viability ([12]; first compound 8 µM): 0.572
- relative viability ([14]; first compound 0.08 µM): 0.938
- relative viability ([14]; first compound 0.8 µM): 0.924
- relative viability ([14]; first compound 2.53 µM): 1.06
- relative viability ([14]; first compound 8 µM): 0.898
- relative viability ([15]; first compound 0.08 µM): 0.779
- relative viability ([15]; first compound 0.8 µM): 0.852
- relative viability ([15]; first compound 2.53 µM): 1
- relative viability ([15]; first compound 8 µM): 0.907
- relative viability ([16]; first compound 0.08 µM): 1.01
- relative viability ([16]; first compound 0.8 µM): 1.1
- relative viability ([16]; first compound 2.53 µM): 0.952
- relative viability ([16]; first compound 8 µM): 1.11
- relative viability ([17]; first compound 0.08 µM): 0.727
- relative viability ([17]; first compound 0.8 µM): 0.932
- relative viability ([17]; first compound 2.53 µM): 0.875
- relative viability ([17]; first compound 8 µM): 1.04
- relative viability ([18]; first compound 0.08 µM): 1.06
- relative viability ([18]; first compound 0.8 µM): 1.01
- relative viability ([18]; first compound 2.53 µM): 1.08
- relative viability ([18]; first compound 8 µM): 0.959
- relative viability ([19]; first compound 0.08 µM): 1.19
- relative viability ([19]; first compound 0.8 µM): 1.21
- relative viability ([19]; first compound 2.53 µM): 1.2
- relative viability ([19]; first compound 8 µM): 1.17
- relative viability ([20]; first compound 0.08 µM): 0.633
- relative viability ([20]; first compound 0.8 µM): 0.572
- relative viability ([20]; first compound 2.53 µM): 1.02
- relative viability ([20]; first compound 8 µM): 0.637
- relative viability ([21]; first compound 0.08 µM): 0.802
- relative viability ([21]; first compound 0.8 µM): 1.08
- relative viability ([21]; first compound 2.53 µM): 1.4
- relative viability ([21]; first compound 8 µM): 0.765
- relative viability ([22]; first compound 0.08 µM): 0.654
- relative viability ([22]; first compound 0.8 µM): 0.638
- relative viability ([22]; first compound 2.53 µM): 0.801
- relative viability ([22]; first compound 8 µM): 0.609
- relative viability ([23]; first compound 0.08 µM): 1.03
- relative viability ([23]; first compound 0.8 µM): 1.08
- relative viability ([23]; first compound 2.53 µM): 1.12
- relative viability ([23]; first compound 8 µM): 1.23
- relative viability ([24]; first compound 0.08 µM): 0.771
- relative viability ([24]; first compound 0.8 µM): 0.803
- relative viability ([24]; first compound 2.53 µM): 0.826
- relative viability ([24]; first compound 8 µM): 0.829
